Assays:
[1] = test system: Chlamydia psittaci; conditions: expected efficacy against Chlamydia psittaci
[2] = test system: Providencia rettgeri; assay: Expected efficacy of antibiotic agents; conditions: expected efficacy against Providencia rettgeri
[3] = test system: Acinetobacter baumannii; assay: Expected efficacy of antibiotic agents; conditions: expected efficacy against Acinetobacter baumannii
[4] = test system: Streptococcus pneumoniae; assay: Expected efficacy of antibiotic agents; conditions: expected efficacy against Streptococcus pneumoniae
[5] = test system: Corynebacterium jeikeium; assay: Expected efficacy of antibiotic agents; conditions: expected efficacy against Corynebacterium jeikeium
[6] = test system: Shigella sonnei; assay: Expected efficacy of antibiotic agents; conditions: expected efficacy against Shigella sonnei
[7] = test system: Proteus mirabilis; assay: Expected efficacy of antibiotic agents; conditions: expected efficacy against Proteus mirabilis
[8] = test system: Streptococcus pyogenes; assay: Expected efficacy of antibiotic agents; conditions: expected efficacy against Streptococcus pyogenes
[9] = test system: Moraxella catarrhalis; assay: Expected efficacy of antibiotic agents; conditions: expected efficacy against Moraxella catarrhalis
[10] = test system: Acinetobacter lwoffii; assay: Expected efficacy of antibiotic agents; conditions: expected efficacy against Acinetobacter lwoffii
[11] = test system: Serratia marcescens; assay: Expected efficacy of antibiotic agents; conditions: expected efficacy against Serratia marcescens
[12] = test system: Citrobacter diversus; assay: Expected efficacy of antibiotic agents; conditions: expected efficacy against Citrobacter diversus
[13] = test system: Yersinia pestis; conditions: expected efficacy against Yersinia pestis
[14] = test system: Campylobacter jejuni; assay: Expected efficacy of antibiotic agents; conditions: expected efficacy against Campylobacter jejuni
[15] = test system: Staphylococcus aureus (MSSA); assay: Expected efficacy of antibiotic agents; conditions: expected efficacy against Staphylococcus aureus (MSSA)
[16] = test system: Shigella dysenteriae; assay: Expected efficacy of antibiotic agents; conditions: expected efficacy against Shigella dysenteriae
[17] = test system: Bacteroides fragilis; assay: Expected efficacy of antibiotic agents; conditions: expected efficacy against Bacteroides fragilis
[18] = test system: Methicillin resistant staph aureus (MRSA); assay: Expected efficacy of antibiotic agents; conditions: expected efficacy against Methicillin resistant staph aureus (MRSA)
[19] = test system: Peptostreptococcus; assay: Expected efficacy of antibiotic agents; conditions: expected efficacy against Peptostreptococcus
[20] = test system: Pseudomonas aeruginosa; assay: Expected efficacy of antibiotic agents; conditions: expected efficacy against Pseudomonas aeruginosa
[21] = test system: Citrobacter freundii; assay: Expected efficacy of antibiotic agents; conditions: expected efficacy against Citrobacter freundii
[22] = test system: Neisseria gonorrhoeae; assay: Expected efficacy of antibiotic agents; conditions: expected efficacy against Neisseria gonorrhoeae
[23] = test system: Klebsiella pneumoniae; assay: Expected efficacy of antibiotic agents; conditions: expected efficacy against Klebsiella pneumoniae
[24] = test system: Legionella pneumophila; conditions: expected efficacy against Legionella pneumophila
[25] = test system: Haemophilus ducreyi; assay: Expected efficacy of antibiotic agents; conditions: expected efficacy against Haemophilus ducreyi
[26] = test system: Enterobacter cloacae; assay: Expected efficacy of antibiotic agents; conditions: expected efficacy against Enterobacter cloacae
[27] = test system: Corynebacterium urealyticum; assay: Expected efficacy of antibiotic agents; conditions: expected efficacy against Corynebacterium urealyticum
[28] = test system: Providencia stuartii; assay: Expected efficacy of antibiotic agents; conditions: expected efficacy against Providencia stuartii
[29] = test system: Morganella morganii; assay: Expected efficacy of antibiotic agents; conditions: expected efficacy against Morganella morganii
[30] = test system: Klebsiella oxytoca; assay: Expected efficacy of antibiotic agents; conditions: expected efficacy against Klebsiella oxytoca
[31] = test system: Klebsiella (Calymmatobacterium) granulomatis; assay: Expected efficacy of antibiotic agents; conditions: expected efficacy against Klebsiella (Calymmatobacterium) granulomatis
[32] = test system: Salmonella typhi; assay: Expected efficacy of antibiotic agents; conditions: expected efficacy against Salmonella typhi
[33] = test system: Shigella boydii; assay: Expected efficacy of antibiotic agents; conditions: expected efficacy against Shigella boydii
[34] = test system: Haemophilus parainfluenzae; assay: Expected efficacy of antibiotic agents; conditions: expected efficacy against Haemophilus parainfluenzae
[35] = test system: Clostridium difficile; assay: Expected efficacy of antibiotic agents; conditions: expected efficacy against Clostridium difficile
[36] = test system: Neisseria meningitidis; assay: Expected efficacy of antibiotic agents; conditions: expected efficacy against Neisseria meningitidis
[37] = test system: Proteus vulgaris; assay: Expected efficacy of antibiotic agents; conditions: expected efficacy against Proteus vulgaris
[38] = test system: Bordetella pertussis; assay: Expected efficacy of antibiotic agents; conditions: expected efficacy against Bordetella pertussis
[39] = test system: Haemophilus influenzae; assay: Expected efficacy of antibiotic agents; conditions: expected efficacy against Haemophilus influenzae
[40] = test system: Enterobacter sakazakii; assay: Expected efficacy of antibiotic agents; conditions: expected efficacy against Enterobacter sakazakii
[41] = test system: Chlamydia pneumoniae; assay: Expected efficacy of antibiotic agents; conditions: expected efficacy against Chlamydia pneumoniae
[42] = test system: Enterococcus faecalis; assay: Expected efficacy of antibiotic agents; conditions: expected efficacy against Enterococcus faecalis
[43] = test system: Acinetobacter calcoaceticus; assay: Expected efficacy of antibiotic agents; conditions: expected efficacy against Acinetobacter calcoaceticus
[44] = test system: Streptococcus agalactiae; assay: Expected efficacy of antibiotic agents; conditions: expected efficacy against Streptococcus agalactiae
[45] = test system: Escherichia coli; assay: Expected efficacy of antibiotic agents; conditions: expected efficacy against Escherichia coli
[46] = test system: Enterococcus faecium; assay: Expected efficacy of antibiotic agents; conditions: expected efficacy against Enterococcus faecium
[47] = test system: Clostridium perfringens; conditions: expected efficacy against Clostridium perfringens
[48] = test system: Francisella tularensis; conditions: expected efficacy against Francisella tularensis
[49] = test system: Diphtheroids; assay: Expected efficacy of antibiotic agents; conditions: expected efficacy against Diphtheroids
[50] = test system: Rickettsiae; conditions: expected efficacy against Rickettsiae
[51] = test system: Enterobacter aerogenes; assay: Expected efficacy of antibiotic agents; conditions: expected efficacy against Enterobacter aerogenes
[52] = test system: Shigella flexneri; assay: Expected efficacy of antibiotic agents; conditions: expected efficacy against Shigella flexneri
[53] = test system: Vibrio cholerae; assay: Expected efficacy of antibiotic agents; conditions: expected efficacy against Vibrio cholerae
[54] = test system: Viridans group streptococci; assay: Expected efficacy of antibiotic agents; conditions: expected efficacy against Viridans group streptococci
[55] = test system: Staphylococcus epidermidis; assay: Expected efficacy of antibiotic agents; conditions: expected efficacy against Staphylococcus epidermidis
[56] = test system: Chlamydia trachomatis; assay: Expected efficacy of antibiotic agents; conditions: expected efficacy against Chlamydia trachomatis
[57] = test system: Mycoplasma pneumoniae; assay: Expected efficacy of antibiotic agents; conditions: expected efficacy against Mycoplasma pneumoniae
[58] = test system: Pseudomonas fluorescens; assay: Expected efficacy of antibiotic agents; conditions: expected efficacy against Pseudomonas fluorescens
[59] = test system: Brucella species; conditions: expected efficacy against Brucella species

In the case of `CO/N=C(\C(=O)N[C@@H]1C(=O)N2C(C(=O)O)=C(CSc3nc(=O)c(=O)[nH]n3C)CS[C@H]12)c1csc(N)n1` [Ceftriaxone, ceftriaxone], the Efficacy [1] was “no”, the Efficacy [2] was “yes” and the Efficacy [3] was “no”. For the same molecule, the Efficacy [4] was “yes”, the Efficacy [5] was “no” and the Efficacy [6] was “yes”. The Efficacy [7] was “yes”, the Efficacy [8] was “yes” and the Efficacy [9] was “yes”. The Efficacy [10] was “no”, the Efficacy [11] was “yes” and the Efficacy [12] was “yes”. For the same molecule, the Efficacy [13] was “no”, the Efficacy [14] was “no” and the Efficacy [15] was “yes”. The Efficacy [16] was “yes”, the Efficacy [17] was “yes” and the Efficacy [18] was “no”. For the same molecule, the Efficacy [19] was “yes”, the Efficacy [20] was “no” and the Efficacy [21] was “yes”. The Efficacy [22] was “yes”, the Efficacy [23] was “yes” and the Efficacy [24] was “no”. The Efficacy [25] was “yes”, the Efficacy [26] was “yes” and the Efficacy [27] was “no”. For the same molecule, the Efficacy [28] was “yes”, the Efficacy [29] was “yes” and the Efficacy [30] was “yes”. The Efficacy [31] was “yes”, the Efficacy [32] was “yes” and the Efficacy [33] was “yes”. The Efficacy [34] was “yes”, the Efficacy [35] was “no” and the Efficacy [36] was “yes”. For the same molecule, the Efficacy [37] was “yes”, the Efficacy [38] was “no” and the Efficacy [39] was “yes”. For the same molecule, the Efficacy [40] was “yes”, the Efficacy [41] was “no” and the Efficacy [42] was “no”. For the same molecule, the Efficacy [43] was “no”, the Efficacy [44] was “yes” and the Efficacy [45] was “yes”. The Efficacy [46] was “no”, the Efficacy [47] was “yes” and the Efficacy [48] was “no”. For the same molecule, the Efficacy [49] was “no”, the Efficacy [50] was “no” and the Efficacy [51] was “yes”. The Efficacy [52] was “yes”, the Efficacy [53] was “no” and the Efficacy [54] was “yes”. The Efficacy [55] was “yes”, the Efficacy [56] was “no” and the Efficacy [57] was “no”.
`NC[C@H]1O[C@H](O[C@H]2[C@H](O)[C@@H](O[C@H]3O[C@H](CO)[C@@H](O)[C@H](N)[C@H]3O)[C@H](N)C[C@@H]2N)[C@H](N)C[C@@H]1O` [Tobramycin, tobramycin] was tested, and the Efficacy [1] was “no”, the Efficacy [3] was “no” and the Efficacy [4] was “no”. The Efficacy [5] was “no”, the Efficacy [6] was “yes” and the Efficacy [7] was “yes”. For the same molecule, the Efficacy [8] was “no”, the Efficacy [9] was “yes” and the Efficacy [10] was “no”. For the same molecule, the Efficacy [11] was “yes”, the Efficacy [12] was “yes” and the Efficacy [13] was “yes”. For the same molecule, the Efficacy [14] was “yes”, the Efficacy [15] was “no” and the Efficacy [58] was “yes”. The Efficacy [16] was “yes”, the Efficacy [17] was “no” and the Efficacy [18] was “no”. The Efficacy [19] was “no”, the Efficacy [20] was “yes” and the Efficacy [21] was “yes”. The Efficacy [22] was “no”, the Efficacy [23] was “yes” and the Efficacy [24] was “no”. For the same molecule, the Efficacy [25] was “yes”, the Efficacy [26] was “yes” and the Efficacy [27] was “no”. The Efficacy [30] was “yes”, the Efficacy [31] was “yes” and the Efficacy [33] was “yes”. For the same molecule, the Efficacy [35] was “no”, the Efficacy [36] was “no” and the Efficacy [37] was “yes”. The Efficacy [38] was “no”, the Efficacy [39] was “yes” and the Efficacy [40] was “yes”. The Efficacy [41] was “no”, the Efficacy [42] was “no” and the Efficacy [43] was “no”. For the same molecule, the Efficacy [44] was “no”, the Efficacy [45] was “yes” and the Efficacy [46] was “no”. The Efficacy [47] was “no”, the Efficacy [49] was “no” and the Efficacy [51] was “yes”. The Efficacy [52] was “yes”, the Efficacy [53] was “no” and the Efficacy [54] was “no”. The Efficacy [55] was “no”, the Efficacy [56] was “no” and the Efficacy [57] was “no”.
For Colistimethate, the Efficacy [1] was “no”, the Efficacy [2] was “no” and the Efficacy [4] was “no”. The Efficacy [5] was “no”, the Efficacy [7] was “no” and the Efficacy [8] was “no”. For the same molecule, the Efficacy [9] was “no”, the Efficacy [11] was “no” and the Efficacy [15] was “no”. For the same molecule, the Efficacy [58] was “yes”, the Efficacy [17] was “no” and the Efficacy [18] was “no”. For the same molecule, the Efficacy [19] was “no”, the Efficacy [20] was “yes” and the Efficacy [22] was “no”. The Efficacy [23] was “yes”, the Efficacy [24] was “no” and the Efficacy [26] was “yes”. The Efficacy [27] was “no”, the Efficacy [28] was “no” and the Efficacy [59] was “no”. For the same molecule, the Efficacy [30] was “yes”, the Efficacy [31] was “yes” and the Efficacy [34] was “no”. The Efficacy [35] was “no”, the Efficacy [36] was “no” and the Efficacy [37] was “no”. The Efficacy [38] was “no”, the Efficacy [40] was “yes” and the Efficacy [41] was “no”. For the same molecule, the Efficacy [42] was “no”, the Efficacy [44] was “no” and the Efficacy [45] was “yes”. The Efficacy [46] was “no”, the Efficacy [49] was “no” and the Efficacy [51] was “yes”. The Efficacy [53] was “no”, the Efficacy [54] was “no” and the Efficacy [55] was “no”. For the same molecule, the Efficacy [56] was “no” and the Efficacy [57] was “no”.

Source: patent US20170173002A1, “Compositions and Methods for Treating an Infection” (CMPD LICENSING, LLC, priority 2015, published 2017)
